Measured values published in PubChem BioAssay (NCI).
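Exposure lasted 48 hours, with cells grown in 96-well plates and compounds tested at five concentrations. TGI marks complete inhibition of growth.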

Legend:
Assay in all cases: NCI tumour cell line growth inhibition, 48 h
A498 renal = system: A498 renal
A549 NSCLC = system: A549 NSCLC
CAKI-1 renal = system: CAKI-1 renal
EKVX NSCLC = system: EKVX NSCLC
HL-60(TB) leukemia = system: HL-60(TB) leukemia
IGROV1 ovarian = system: IGROV1 ovarian
MCF7 breast = system: MCF7 breast
OVCAR-5 ovarian = system: OVCAR-5 ovarian
SF-539 CNS = system: SF-539 CNS
SK-MEL-2 melanoma = system: SK-MEL-2 melanoma
SN12C renal = system: SN12C renal
SNB-19 CNS = system: SNB-19 CNS
SW-620 colon = system: SW-620 colon
TK-10 renal = system: TK-10 renal

| Compound | TGI (A498 renal) | TGI (A549 NSCLC) | TGI (CAKI-1 renal) | TGI (EKVX NSCLC) | TGI (HL-60(TB) leukemia) | TGI (IGROV1 ovarian) | TGI (MCF7 breast) | TGI (OVCAR-5 ovarian) | TGI (SF-539 CNS) | TGI (SK-MEL-2 melanoma) | TGI (SN12C renal) | TGI (SNB-19 CNS) | TGI (SW-620 colon) | TGI (TK-10 renal) |
| --- | --- | --- | --- | --- | --- | --- | --- | --- | --- | --- | --- | --- | --- | --- |
| COC(=O)/N=[N+](\[O-])C(c1ccc(OC)cc1)C1CCCCC1 (stereo not drawn) | 25.3 µM | 34.9 µM | 10.3 µM | > 44.1 µM | 2.78 µM | > 100 µM | > 100 µM | 11.9 µM | > 48.3 µM | 31.8 µM | 11.3 µM | > 54.2 µM | 24.3 µM | 25.9 µM |
| CSC1=C(c2ccc(Cl)cc2)SC(N2CCCCC2)N1c1ccc([N+](=O)[O-])cc1 (stereo not drawn) | 73.2 µM | > 100 µM | > 100 µM | > 100 µM | 97.4 µM | > 100 µM | > 100 µM | 65.9 µM | 56.5 µM | 54.3 µM | – | > 100 µM | > 100 µM | > 100 µM |
| Cc1cn(Cc2ccccc2CCl)c(=O)[nH]c1=O | – | 36.6 µM | 24.8 µM | 33.2 µM | 14.8 µM | 13.9 µM | 19 µM | 43.4 µM | 24.6 µM | 33.8 µM | 32.7 µM | 25.9 µM | 34.1 µM | 33.8 µM |
| CCCCOC(=O)C(O)Cc1ccoc1 (stereo not drawn) | > 100 µM | > 100 µM | – | > 100 µM | > 100 µM | > 100 µM | > 100 µM | > 100 µM | > 100 µM | > 100 µM | > 100 µM | > 100 µM | > 100 µM | > 100 µM |
| O=C(CC(C(=O)c1ccoc1)c1ccco1)c1ccco1 (stereo not drawn) | > 100 µM | > 100 µM | > 100 µM | > 100 µM | > 100 µM | > 100 µM | > 100 µM | > 100 µM | > 100 µM | – | > 100 µM | – | > 100 µM | > 100 µM |
| COC(=O)c1c(C)cccc1/C=C1\Cc2cc(C)cc(C)c2C1=O | > 100 µM | > 100 µM | > 100 µM | > 100 µM | > 100 µM | > 100 µM | > 100 µM | > 100 µM | > 100 µM | 57.3 µM | > 100 µM | > 100 µM | > 100 µM | 73 µM |
| CC(=O)Nc1ccc2[nH]c(-c3cccc(F)c3)cc(=O)c2c1 | > 59.8 µM | > 100 µM | > 100 µM | > 100 µM | 80.7 µM | > 100 µM | > 100 µM | > 100 µM | 6.92 µM | […] | > 100 µM | > 100 µM | > 100 µM | > 100 µM |
| C[Si](C)(OCCS(=O)(=O)O)C1S(=O)(=O)OCCOS1(=O)=O | > 100 µM | – | 84 µM | > 100 µM | > 100 µM | > 100 µM | > 100 µM | > 100 µM | > 100 µM | – | > 100 µM | > 100 µM | > 100 µM | > 100 µM |
| COc1cccc(NC(=O)CC(=O)N2N=C(C)C(N=Nc3ccc(S(=O)(=O)c4ccc(N=NC5C(=O)N(C(=O)CC(=O)Nc6cccc(OC)c6)N=C5C)cc4)cc3)C2=O)c1 (stereo not drawn) | > 100 µM | > 100 µM | > 100 µM | > 100 µM | > 100 µM | > 100 µM | > 100 µM | > 100 µM | > 100 µM | > 100 µM | > 100 µM | > 100 µM | > 100 µM | > 100 µM |
| N#Cc1ccc(OCc2nc3cc(C(F)(F)F)ccc3nc2-c2ccccc2)cc1 | > 100 µM | > 100 µM | > 100 µM | > 100 µM | > 100 µM | > 100 µM | > 100 µM | > 100 µM | > 100 µM | > 100 µM | > 100 µM | > 100 µM | > 100 µM | > 100 µM |
| CN(CCc1ccc(N)cc1)[C@H]1CCCC[C@H]1N1CCCC1 | > 100 µM | > 100 µM | > 100 µM | > 100 µM | > 100 µM | > 100 µM | > 100 µM | > 100 µM | – | > 100 µM | > 100 µM | > 100 µM | > 100 µM | > 100 µM |
| O=C(N/N=C\c1ccc2ccccc2c1)Nc1ccc([N+](=O)[O-])cc1 | – | > 85 µM | > 100 µM | > 100 µM | > 100 µM | > 100 µM | > 100 µM | 62.9 µM | > 69.7 µM | > 73.5 µM | > 59.8 µM | > 100 µM | > 100 µM | > 55.9 µM |
| O=C1CCCCc2cccc(O)c21 | > 100 µM | – | > 100 µM | > 100 µM | > 100 µM | > 100 µM | > 100 µM | > 100 µM | > 100 µM | > 100 µM | > 100 µM | > 100 µM | > 100 µM | > 100 µM |
| O=[N+]([O-])c1cccnc1NCC1(CO)CC(Cc2ccccc2)C1 (stereo not drawn) | > 100 µM | > 100 µM | > 100 µM | > 100 µM | > 100 µM | > 100 µM | > 100 µM | > 100 µM | > 100 µM | > 100 µM | > 100 µM | – | > 100 µM | > 100 µM |
| CC1(C)CC(=O)c2c(nc3ccc4ccccc4c3c2-c2ccc(NC(=O)CCC(=O)Nc3ccc(-c4c5c(nc6ccc7ccccc7c46)CC(C)(C)CC5=O)cc3)cc2)C1 | – | > 100 µM | > 100 µM | > 100 µM | > 100 µM | > 100 µM | > 100 µM | > 100 µM | > 100 µM | > 100 µM | > 100 µM | > 100 µM | > 100 µM | > 100 µM |
| O[C@@H]1C[C@@H]2N[C@@](O)(C[C@@H]2O)[C@H]1O | > 100 µM | > 100 µM | – | > 100 µM | > 100 µM | > 100 µM | > 100 µM | > 100 µM | > 100 µM | – | > 100 µM | > 100 µM | > 100 µM | > 100 µM |
| Cc1ccc(N=C2C(=O)C3=C(OC(C)(C)CC3)c3ccccc32)cc1 | 3.81 µM | 3.69 µM | 3.16 µM | 3.35 µM | 3.21 µM | 2.03 µM | 1.23 µM | 3.5 µM | – | 3.31 µM | 1.73 µM | 2.26 µM | 2.14 µM | 4.86 µM |
